Where “and” joins values, the source holds several entries; their conditions need not be identical. Identical values can stand only once.
What was measured:
[1] = test system: AT1R; experiment: Confocal microscopy of YFP-tagged AT1R internalization; assay type: cell-based, human; details: 50 μM; AngII
Description: One day before transfection, cells were seeded in 35-mm glass-bottom dishes (MatTek Corporation) at a density of 1 × 10^5 cells per dish. For the recordings of receptor internalization, HEK293 SL cells were transfected with 2 μg of AT1R-YFP. For the recordings of β-arrestin-2 recruitment to the receptor, HEK293SL cells were transfected with 50 ng of β-arrestin2-YFP and 250 ng of Flag-AT1R or HA-B2R. Forty-eight hours post-transfection, cells were serum starved, preincubated with DMSO (0.1% final concentration) or Rasarfin (50 μM) for 30 min at 37 °C. AT1R-expressing cells were stimulated with angiotensinII (AngII; 100 nM) and B2R-expressing cells were stimulated with bradykinin (BK; 1 μM) for 30 min (receptor-YFP) or 15 min (β-arrestin2-YFP). Cells were imaged with Zeiss LSM-510 and/or LSM-710 laser scanning confocal microscope. To detect YFP, […] and BP 505–550 nm emission filter. Images (2048 × 2048) were collected using a 63x oil immersion lens.

[2] = test system: Ras; experiment: GST-Raf1-RBD pull-down of EGFR-mediated Ras activation; assay type: cell-based, human; details: for Ras-GTP over total Ras, GST-Raf1-RBD pull-down, EGFR: Comp 21 50 μM, individual experiments
Source text: Since 21 inhibited both ERK1/2 and Akt activation by GPCRs and EGFR, we looked at a common target involved in both pathways. The small G protein Ras is an upstream regulator of both Ras-RAF-MEK-ERK and PI3K/Akt signaling pathways[35],[36]. Therefore, we explored 21’s ability to inhibit Ras activity using GST-Raf1-Ras-binding domain (RBD) in a pull-down assay. A reduction of 60% in GTP-bound Ras was noticed in pulled-down from cells treated with 21 and stimulated with either AT1R or EGFR, as compared to vehicle-treated cells (Fig. 4a, b). Complementary to this in vitro assay, we generated a Ras BRET assay, using the Raf-Ras binding domain tagged with RlucII (Raf1-RBD-RlucII) and the rGFP at the PM (rGFP-CAAX) (Supplementary Fig. 3c), to assess 21’s effects on Ras activation kinetics. […] Overexpression of either the active form of Ras (G12V) or SOS1 anchored at the PM (SOS-CAAX) produced a robust basal BRET signal that was no longer modulated by receptor activation (Supplementary Fig. 3d). […] 21’s potency to inhibit ARF6 and Ras is also consistent with its relative efficacy for inhibiting AT1R internalization and MAPK, respectively, when used at 50 μM (e.g., around 7 and 70 times the respective IC50s) (Figs. 2e and 3a). We also assessed if 21 was acting as a pan small G protein inhibitor by testing its effect on Rho and Rac/Cdc42. […] To assess Rac/Cdc42 activity, we generated a Rac/Cdc42 BRET sensor that consisted of the PAK-CRIB domain fused to RlucII (PAK-CRIB-RlucII) and the rGFP-CAAX (Supplementary Fig. 3e). PAK-CRIB, which binds to active Rac/Cdc42, was recruited to the PM upon AngII stimulation of cells and generated a robust BRET signal, which was blocked by the overexpression of the DN Rac1-T17N. Overexpression of the constitutively active Rac1-Q61L increased the basal BRET, which was no longer modulated by AT1R stimulation (Supplementary Fig. 3f).
Activation of ARF1, ARF6, Ras, and Rho were assessed by using GST pull-down assays. […] ImageLab 5.2 software was used to quantify the digital blots as fold of the amount of pulled down protein over total protein. […]

CC(C)C(=O)N1CCN(c2ccc(NC(=O)c3cc4ccccc4o3)cc2Cl)CC1 [Compound 21]
AT1R localization by microscopy [1]: remained trapped at the PM | reduction in GTP-bound Ras, EGFR-stimulated cells (pull-down) ([2]; 50 μM, compared to vehicle-treated cells): 60% | Ras-GTP over total Ras, GST-Raf1-RBD pull-down, EGFR ([2]; Ctrl (no EGF)): 0.1945 and 0.09698 and 0.1503 | Ras-GTP over total Ras, GST-Raf1-RBD pull-down, EGFR ([2]; EGF): 1.319 and 0.978 and 0.8185
